Data published in paper PMC10221946, “Screening of Tyrosinase, Xanthine Oxidase, and α-Glucosidase Inhibitors from Polygoni Cuspidati Rhizoma et Radix by Ultrafiltration and HPLC Analysis” (Molecules, 2023).

Assays:
[1] = system: TYR; assay: UF-HPLC screening, binding degree with TYR; conditions: PCR extraction 5 mg/mL, 200 U/mL TYR, 37 °C 60 min, active vs inactive enzyme peak area
Protocol: (§1) The UF experiment was performed according to the method described in the literature, with slight modifications. In the experimental group, 200 µL of the PCR extraction (5 mg/mL) was mixed with 200 µL of 3 enzyme solutions (200 U/mL of TYR, 4 U/mL of XOD, and 6 U/mL of α-GLU, respectively). The mixtures were incubated at 37 °C for 60 min, and then 200 μL of each of them was transferred to a 3 KDa molecular weight cut-off ultrafiltration centrifuge tube to separate the unbound compounds from the enzyme–ligand complexes by centrifugation (9400× g, 30 min). Finally, the ultrafiltration filter was washed three times with 5% methanol–PBS under centrifugal conditions (9400× g, 30 min) to completely remove any unbound components. The concentration and pH of the PBS used for the different enzymes were the same as for the offline inhibition tests.
(§2) Finally, the unbound component solutions of the experimental and control groups were analyzed by HPLC. […] Binding degree = (1 − P2/P1) × 100%(2)
(§3) HPLC condition: An Agilent 1260 high-performance liquid chromatography system (Agilent Technologies, Santa Clara, CA, USA), equipped with a quaternary pump system, an auto-sampler, a column oven, and a diode array detector, was employed in the current experiment. The sample was separated on an Agilent Poroshell 120 EC-C18 column (100 mm × 4.6 mm, 2.7 μm). The column temperature was set at 30 °C. The mobile phase was 0.1% aqueous formic acid (A) and acetonitrile (B), with a gradient elution procedure of 5% B (0 min), 5% B (3 min), 20% B (23 min), 24% B (28 min), 60% B (32 min), and 100% B (38 min). The flow rate was 0.6 mL/min. The detection wavelength was set at 290 nm, and the injection volume was 5.0 µL.

[2] = biological target: T1, XOD (Bos taurus, UniProt P80457); assay: UF-HPLC screening, binding degree with XOD; conditions: PCR extraction 5 mg/mL, 4 U/mL XOD, 37 °C 60 min, active vs inactive enzyme peak area
T1 construct: purchased Sigma-Aldrich (Shanghai, China)
Protocol: as §1, §2, §3

[3] = system: α-GLU; assay: UF-HPLC screening, binding degree with α-GLU; conditions: PCR extraction 5 mg/mL, 6 U/mL α-GLU, 37 °C 60 min, active vs inactive enzyme peak area
Protocol: as §1, §2, §3

[4] = biological target: T2, tyrosinase (TYR) (Agaricus bisporus, UniProt C7FF04); assay: Tyrosinase (TYR) inhibition test, offline 96-well microplate; type: biochemical
T2 construct: purchased Sigma-Aldrich (Shanghai, China)
Protocol: The reaction was incubated at 25 °C for 50 min. […] Inhibition (%) = [(Abscontrol − Abssample)/Abscontrol] × 100%(1)

[5] = system: TYR; assay: Kinetic analysis (Lineweaver–Burk) on TYR; type: biochemical; conditions: Lineweaver–Burk plot, L-tyrosine 1.0~5.0 mM, TYR 200 U/mL
Protocol: (§4) Subsequently, kinetic analysis was conducted using Lineweaver–Burk plots to investigate the inhibition modes on enzymes caused by methylgallate and polydatin. Competitive, noncompetitive, and mixed inhibitions are three common modes in enzyme kinetic analysis. […] All of the straight lines almost intersect on the Y axis at a certain point. […] All of the straight lines almost intersect on the X axis at a certain point. […] All of the straight lines usually intersect in the quadrants at one point.
(§5) In this work, Lineweaver–Burk was used to investigate the inhibition type of methylgallate and polydatin on enzymes. For TYR, the concentration of the enzyme was kept constant at 200 U/mL, and various concentrations of L-tyrosine (1.0~5.0 mM) were prepared. Various concentrations of methylgallate (0.0~1.3 mM) and polydatin (0.0~0.4 mM) were also provided. For XOD, the concentration of the enzyme was kept constant at 0.05 U/mL, and various concentrations of xanthin (0.06~0.50 mM) were prepared. Various concentrations of polydatin (0.0~0.5 mM) were also provided. For α-GLU, the concentration of the enzyme was kept constant at 0.15 U/mL, and various concentrations of ρNPG (0.8~5.0 mM) were prepared. Various concentrations of polydatin (0.0~3.6 mM) were also provided. GraphPad Prism 5.0 software (USA) was used for the calculation.

[6] = biological target: T1, XOD; assay: Kinetic analysis (Lineweaver–Burk) on XOD; type: biochemical; conditions: Lineweaver–Burk plot, xanthin 0.06~0.50 mM, XOD 0.05 U/mL
Protocol: as §4, §5

[7] = system: α-GLU; assay: Kinetic analysis (Lineweaver–Burk) on α-GLU; type: biochemical; conditions: Lineweaver–Burk plot, ρNPG 0.8~5.0 mM, α-GLU 0.15 U/mL
Protocol: as §4, §5

[8] = biological target: xanthine oxidase (XOD) (Bos taurus, UniProt P80457); assay: Xanthine oxidase (XOD) inhibition test, offline 96-well microplate
Chain of xanthine oxidase (XOD) (P80457 whole entry): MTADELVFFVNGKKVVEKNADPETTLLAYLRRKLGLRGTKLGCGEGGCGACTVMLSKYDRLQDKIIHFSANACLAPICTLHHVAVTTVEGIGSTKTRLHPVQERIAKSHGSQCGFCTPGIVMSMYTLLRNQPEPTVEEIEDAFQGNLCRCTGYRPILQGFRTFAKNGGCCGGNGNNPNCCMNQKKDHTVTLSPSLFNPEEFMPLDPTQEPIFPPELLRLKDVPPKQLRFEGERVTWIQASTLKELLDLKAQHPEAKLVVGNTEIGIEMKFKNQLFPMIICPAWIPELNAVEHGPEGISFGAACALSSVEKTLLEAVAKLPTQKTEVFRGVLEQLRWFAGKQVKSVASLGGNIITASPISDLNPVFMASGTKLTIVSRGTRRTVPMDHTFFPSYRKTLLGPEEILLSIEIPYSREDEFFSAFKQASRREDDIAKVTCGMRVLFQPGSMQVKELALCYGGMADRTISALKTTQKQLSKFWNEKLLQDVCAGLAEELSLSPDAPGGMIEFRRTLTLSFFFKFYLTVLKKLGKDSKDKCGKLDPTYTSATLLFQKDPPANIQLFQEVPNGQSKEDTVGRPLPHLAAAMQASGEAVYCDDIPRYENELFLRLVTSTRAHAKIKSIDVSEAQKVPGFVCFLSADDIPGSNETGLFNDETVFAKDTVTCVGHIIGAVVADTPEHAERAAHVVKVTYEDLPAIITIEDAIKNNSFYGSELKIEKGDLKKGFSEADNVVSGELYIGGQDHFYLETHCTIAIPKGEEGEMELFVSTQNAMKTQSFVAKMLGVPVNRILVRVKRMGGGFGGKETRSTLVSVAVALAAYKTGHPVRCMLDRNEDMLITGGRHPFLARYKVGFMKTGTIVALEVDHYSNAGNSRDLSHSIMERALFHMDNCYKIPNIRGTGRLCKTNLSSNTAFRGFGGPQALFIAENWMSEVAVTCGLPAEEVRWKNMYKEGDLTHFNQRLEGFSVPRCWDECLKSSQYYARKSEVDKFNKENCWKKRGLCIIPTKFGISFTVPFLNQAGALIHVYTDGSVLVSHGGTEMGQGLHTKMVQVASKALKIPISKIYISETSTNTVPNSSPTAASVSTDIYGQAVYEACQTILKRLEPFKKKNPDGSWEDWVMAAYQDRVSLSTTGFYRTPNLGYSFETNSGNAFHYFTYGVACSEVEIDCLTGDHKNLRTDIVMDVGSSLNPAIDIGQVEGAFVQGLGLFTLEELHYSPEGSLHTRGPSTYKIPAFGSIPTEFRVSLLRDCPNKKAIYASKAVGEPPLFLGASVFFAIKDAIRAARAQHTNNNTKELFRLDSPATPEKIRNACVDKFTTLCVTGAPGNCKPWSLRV
Protocol: In the XOD inhibition assay, each well contained 30 μL of the PCR sample, 30 μL of XOD (0.05 U/mL, dissolved in 200 mM of phosphate buffer, pH 8.5), and 15 μL of NBT (2 mg/mL, dissolved in 200 mM of phosphate buffer, pH 8.5). […] The reaction was stopped by adding 15 µL of SDS (10%). The reaction solution was tested at 560 nm.

T1 sequence (P80457 whole entry): as above
T2 sequence (C7FF04 1-392 limits assumed): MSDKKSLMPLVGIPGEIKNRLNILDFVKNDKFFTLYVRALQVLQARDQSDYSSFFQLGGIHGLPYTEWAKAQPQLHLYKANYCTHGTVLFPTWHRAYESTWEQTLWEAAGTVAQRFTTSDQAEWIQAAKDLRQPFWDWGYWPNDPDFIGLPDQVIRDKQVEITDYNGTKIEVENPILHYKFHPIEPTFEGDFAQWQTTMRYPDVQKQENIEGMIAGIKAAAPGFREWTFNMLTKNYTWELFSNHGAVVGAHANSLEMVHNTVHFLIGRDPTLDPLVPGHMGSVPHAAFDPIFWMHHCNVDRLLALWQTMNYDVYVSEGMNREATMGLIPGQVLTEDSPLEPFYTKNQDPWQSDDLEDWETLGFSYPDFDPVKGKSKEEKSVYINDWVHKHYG

| Binding degree: TYR [1] | Binding degree: XOD [2] | Binding degree: α-GLU [3] | SMILES | further results |
| --- | --- | --- | --- | --- |
| 77.53% | 50.69% | 0.00% | O=C(OC[C@H]1O[C@@H](OC(=O)c2cc(O)c(O)c(O)c2)[C@H](O)[C@@H](O)[C@@H]1O)c1cc(O)c(O)c(O)c1 [1,6-Di-O-galloyl-D-glucose (2), 1,6-Di-O-galloyl-D-glucose] |  |
| 57.00% | 49.77% | 11.90% | O=C(O)CC(=O)OCC1OC(Oc2cc(O)cc(C=Cc3ccc(O)cc3)c2)C(O)C(O)C1O (stereo not shown) [Malonyl glucoside resveratrol (6), Malonyl glucoside resveratrol] |  |
|  |  |  | OC[C@H]1O[C@@H](Oc2cc(O)cc(/C=C/c3ccc(O)cc3)c2)[C@H](O)[C@@H](O)[C@@H]1O [Polydatin (5), Polydatin] | inhibition mode on XOD [6]: competitive type; inhibition mode on α-GLU [7]: mixed type; Binding degree: TYR ([1]; listed as Peak 5): 80.74%; IC50 [8]: 2130 µM; IC50 [4]: 188 µM; inhibition mode on TYR [5]: mixed type; Binding degree: XOD ([2]; listed as Peak 5): 55.80%; Binding degree: α-GLU ([3]; listed as Peak 5): 16.51% |
| 57.64% | 0.00% | 0.00% | OC[C@H]1O[C@@H](Oc2ccc(/C=C/c3cc(O)cc(O[C@@H]4O[C@H](CO)[C@@H](O)[C@H](O)[C@H]4O)c3)cc2)[C@H](O)[C@@H](O)[C@@H]1O [Polydatin-4′-O-D-glucoside (3), Polydatin-4′-O-D-glucoside] |  |
| 71.32% | 30.66% | 14.58% | OC[C@H]1O[C@@H](Oc2ccc(/C=C/c3cc(O)cc(O)c3)cc2)[C@H](O)[C@@H](O)[C@@H]1O [Resveratrol-4′-O-D-glucoside (4), Resveratrol-4′-O-D-glucoside] |  |
|  |  |  | OC[C@H]1O[C@@H](Oc2cc(O)cc(/C=C/c3ccc(O)cc3)c2)[C@H](O)[C@@H](O)[C@@H]1O [Resveratrol-5-O-D-glucoside (7), Resveratrol-5-O-D-glucoside] | Binding degree: TYR ([1]; listed as Peak 7): 70.51%; Binding degree: XOD ([2]; listed as Peak 7): 11.65%; Binding degree: α-GLU ([3]; listed as Peak 7): 0.00% |

| SMILES | Binding degree: TYR [1] | Binding degree: XOD [2] | Binding degree: α-GLU [3] | further results |
| --- | --- | --- | --- | --- |
| COC(=O)c1cc(O)c(O)c(O)c1 [Methylgallate (1), Methylgallate] | 36.03% | 0.00% | 0.00% | IC50 [4]: 555 µM; inhibition mode on TYR [5]: noncompetitive type |
